In US12378247B2, “Mesylate salt of para-topolin, compositions containing said salt and use thereof” (USTAV EXPERIMENTALNI BOTANIKY AV CR, V. V. I., priority 2020, dated 2025):
Where “and” joins values, the source holds several entries; their conditions need not be identical. Identical values can stand only once. Counter-ions that a name gives are not always drawn.

Tests used:
[1] = Aqueous solubility (saturated solution, HPLC); type: physicochemical; settings: thermodynamic from solid, water, read-out: concentration of saturated solution in water (aqueous solubility)
Description: Aqueous solubility was measured using the following protocol. Supersaturated solution of para-topolin mesylate salt in water was prepared. The solution was filtrated from visible undissolved particles of the salt to obtain saturated solution. Saturated solution was diluted 1:10 000 and measured using HPLC Alliance Waters 2690 with C18 Symmetry column with the diameter 2.1 mm and 150 mm length with a porosity of 5 μm. The sample was dissolved in the mobile phase (MeOH:HCOONH4-1:9). The sample was washed with a methanol gradient (10-90%, 35 min) at pH 4 and a flow rate of 0.3 ml/min. The absorbances of the components were detected in the UV region at 210-400 nm. The peak area was 2729231. Obtained peak area was compared to area peaks measured at certain concentration and the final concentration of saturated solution was determined.

[2] = Calcein AM cytotoxicity assay, RPMI 8226; type: cell-based; settings: human, RPMI 8226 cells (multiple myeloma); RPMI 8226, 3-day Calcein-AM assay; read-out: Cytotoxic activity IC50
Text: (§1) Because toxic compounds negatively influence metabolic processes of cells, many standard cytotoxicity assays are based on measurement of metabolisation rate of various artificial substrates. Resulting product is then quantified, for example, by means of spectrometry. The assays can be easily modified for use in 96-well plates. For evaluation of cytotoxicity of the […] of this invention, a microtiter assay based on quantification of metabolisation of Calcein AM was used. The assay is widely used in drug screening programs and in chemosensitivity testing. In live cells, Calcein AM is enzymatically hydrolysed and accumulation of the resulting calcein is manifested by green fluorescence. […]
(§2) Approximately 10,000 cells in 80 μL of medium were seeded into 96-well microtitre plates. […] The fluorescence of free calcein was then quantified using a Fluoroscan Ascent fluorometer (Microsystems), and the percentage of surviving cells in each well was calculated by dividing the OD obtained from each cell with exposed cells by the mean OD obtained from control wells×100%. […]

[3] = Calcein AM cytotoxicity assay, HOS; type: cell-based, human; settings: human, HOS cells (osteosarcoma), 3-day Calcein-AM assay, read-out: Cytotoxic activity IC50
Text: as §1, §2

[4] = system: RPMI 8226 (multiple myeloma); assay: Calcein AM cytotoxicity assay, RPMI 8226; type: cell-based; settings: RPMI 8226, 3-day Calcein-AM assay; read-out: Cytotoxic activity IC50
Text: as §1, §2

HOS (human osteosarcoma) = assay: Calcein AM cytotoxicity assay, HOS; type: cell-based; settings: 3-day Calcein-AM assay, read-out: Cytotoxic activity IC50
Text: as §1, §2

| SMILES | Solubility [1] | IC50 at 72 h [2] [µM] | IC50 at 72 h [3] [µM] | IC50 [4] [µM] | IC50 (HOS (human osteosarcoma)) [µM] |
| --- | --- | --- | --- | --- | --- |
| Oc1ccc(CNc2ncnc3nc[nH]c23)cc1 [para-topolin mesylate, 6-(4-hydroxybenzylamino) purine (para-topolin) mesylate (methylsulphonate)] | ~1.2e+06 µM and ~407000 µg/mL | > 167 | > 167 | – | – |
| Oc1ccc(CNc2ncnc3nc[nH]c23)cc1 [para-topolin, 6-(4-Hydroxybenzylamino) purine] | – | – | – | > 167 | > 167 |
